According to US7612087B2, “Heterocyclic compounds as inhibitors of beta-lactamases” (Novexel, priority 2002, dated 2009):
Structures can show the parent of a compound that is named as a salt.

What was measured:
Serratia 301HT6 = assay: MIC, micro-dilution in liquid medium, β-lactamine with product at 5 mg/l; assay type: cell-based; settings: compound at 5 mg/l; Trial 10, 301HT6 Serratia; 24 hours at 37° C.
Procedure, shortened: (§1)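 Strains were seeded into liquid-medium dilutions of β-lactamine, each supplemented with a fixed 5 mg/l of test compound, and held 24 hours at 37° C in a heating chamber. Minimal inhibitory concentration was the level at which bacterial development was wholly absent.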

E. coli 250BE1 (SHV4) = assay: as above; assay type: cell-based; settings: compound at 5 mg/l, 24 hours at 37° C.; for MIC of Piperacillin in combination with the compound: Trial 7, 250BE1 SHV4
Procedure, shortened: as §1

E. coli 250HT26 (SHV1) = assay: as above; assay type: cell-based; settings: compound at 5 mg/l, 24 hours at 37° C.; for MIC of Piperacillin in combination with the compound: Trial 6, 250HT26 SHV1
Procedure, shortened: as §1

[1] = system: E. coli 250HT23 (Class D); assay: as above; assay type: cell-based; settings: compound at 5 mg/l, 24 hours at 37° C.; for MIC of Piperacillin in combination with the compound: Trial 8, 250HT23 Class D
Procedure, shortened: as §1

E. coli 250SJ1 (Tem7) = assay: as above; assay type: cell-based; settings: compound at 5 mg/l, 24 hours at 37° C.; for MIC of Piperacillin in combination with the compound: Trial 5, 250SJ1 Tem7
Procedure, shortened: as §1

[2] = system: P. aeruginosa 391HT7 (PSE); assay: as above; assay type: cell-based; settings: compound at 5 mg/l, 24 hours at 37° C.; for MIC of Piperacillin in combination with the compound: Trial 11, 391HT7 PSE
Procedure, shortened: as §1

E. coli 250HT21 (Tem1) = assay: as above; assay type: cell-based; settings: compound at 5 mg/l, 24 hours at 37° C.; for MIC of Piperacillin in combination with the compound: Trial 2, 250HT21 Tem1
Procedure, shortened: as §1

E. coli 250HT22 (Tem2) = assay: as above; assay type: cell-based; settings: compound at 5 mg/l, 24 hours at 37° C.; for MIC of Piperacillin in combination with the compound: Trial 3, 250HT22 Tem2
Procedure, shortened: as §1

[3] = system: S. aureus 011GO66 (PeniR); assay: as above; assay type: cell-based; settings: compound at 5 mg/l, 24 hours at 37° C.; for MIC of Piperacillin in combination with the compound: Trial 1, 011GO66 peniR
Procedure, shortened: as §1

[4] = system: P. aeruginosa 391HT8 (PSE); assay: as above; assay type: cell-based; settings: compound at 5 mg/l, 24 hours at 37° C.; for MIC of Piperacillin in combination with the compound: Trial 12, 391HT8 PSE
Procedure, shortened: as §1

[5] = system: E. cloacae 293HT6 (Class C); assay: as above; assay type: cell-based; settings: compound at 5 mg/l, 24 hours at 37° C.; for MIC of Piperacillin in combination with the compound: Trial 9, 293HT6 Class
Procedure, shortened: as §1

β-lactamase TEM1 = target: T1, β-lactamase TEM1 (Escherichia coli, UniProt P62593); assay: Inhibition of isolated β-lactamase Tem-1 (Nitrocefin hydrolysis); assay type: biochemical, E.coli 250HT21; settings: 100 μM Nitrocefin, 50 mM sodium phosphate buffer pH7.0, 37° C.
T1 construct: The β-lactamases are isolated from bacterial strains which are resistant to penicillins and cephalosporins; endogenous in cells; host or cells: E. coli 250HT21 (natural producer; French-press lysate, 100,000 g supernatant)
T1 sequence (P62593 24-286 limits assumed): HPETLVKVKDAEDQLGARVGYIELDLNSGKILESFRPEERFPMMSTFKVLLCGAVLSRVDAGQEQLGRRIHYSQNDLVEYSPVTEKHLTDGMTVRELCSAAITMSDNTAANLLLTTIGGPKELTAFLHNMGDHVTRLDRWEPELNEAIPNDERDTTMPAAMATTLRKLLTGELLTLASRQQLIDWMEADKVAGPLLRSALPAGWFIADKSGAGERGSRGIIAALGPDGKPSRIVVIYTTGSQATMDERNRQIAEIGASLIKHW
Procedure, shortened: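 TEM-1 from soluble extract of E. coli 250HT21, normalized enzyme, 100 μM Nitrocefin in 50 mM sodium phosphate pH 7.0 at 37 °C. Initial-rate hydrolysis read kinetically at 485 nm, with and without 5 min enzyme–inhibitor preincubation. CI50 from 6 or 8 concentrations in duplicate.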

E. coli 250CF1 (Tem3) = assay: microbe, parasite or virus in culture; assay type: cell-based; settings: compound at 5 mg/l, 24 hours at 37° C.; for MIC of Piperacillin in combination with the compound: Trial 4, 250CF1 Tem3
Procedure, shortened: as §1

β-lactamase P99 = target: T2, β-lactamase P99 (Enterobacter cloacae, UniProt P05364); assay: biochemical
T2 construct: The β-lactamases are isolated from bacterial strains which are resistant to penicillins and cephalosporins; endogenous in cells; host or cells: Enterobacter cloacae 293HT6 (natural producer; French-press lysate, 100,000 g supernatant)
T2 sequence (P05364 21-381): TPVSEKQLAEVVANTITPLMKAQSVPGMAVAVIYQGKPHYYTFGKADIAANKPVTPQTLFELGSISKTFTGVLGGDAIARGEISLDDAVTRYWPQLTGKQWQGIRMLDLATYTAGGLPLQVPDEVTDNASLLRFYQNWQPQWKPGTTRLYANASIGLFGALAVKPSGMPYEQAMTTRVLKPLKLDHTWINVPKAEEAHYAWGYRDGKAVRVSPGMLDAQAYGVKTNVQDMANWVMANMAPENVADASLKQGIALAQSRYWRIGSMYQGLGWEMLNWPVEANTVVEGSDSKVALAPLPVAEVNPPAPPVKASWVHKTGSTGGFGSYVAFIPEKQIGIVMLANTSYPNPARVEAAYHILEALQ
Procedure, shortened: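 P99 β-lactamase, taken from the soluble fraction of an Enterobacter cloacae 293HT6 lysate, was assayed at 37° C. in 50 mM sodium phosphate buffer pH7.0 with 100 μM Nitrocefin as the chromogenic substrate. Hydrolysis was followed kinetically at 485 nm at initial speed, with and without a 5 mn enzyme–inhibitor preincubation. Inhibitors were tested at 6 or 8 concentrations in duplicate, and IC50 was fitted with GraFit.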

| SMILES | MIC of Piperacillin in combination with the compound (Serratia 301HT6) | MIC of Piperacillin in combination with the compound (E. coli 250BE1 (SHV4)) | MIC of Piperacillin in combination with the compound (E. coli 250HT26 (SHV1)) | MIC of Piperacillin in combination with the compound [1] | MIC of Piperacillin in combination with the compound (E. coli 250SJ1 (Tem7)) | MIC of Piperacillin in combination with the compound [2] | MIC of Piperacillin in combination with the compound (E. coli 250HT21 (Tem1)) | MIC of Piperacillin in combination with the compound (E. coli 250HT22 (Tem2)) | MIC of Piperacillin in combination with the compound [3] | MIC of Piperacillin in combination with the compound [4] | MIC of Piperacillin in combination with the compound [5] | IC50 (β-lactamase TEM1) | MIC of Piperacillin in combination with the compound (E. coli 250CF1 (Tem3)) | IC50 (β-lactamase P99) | other results |
| --- | --- | --- | --- | --- | --- | --- | --- | --- | --- | --- | --- | --- | --- | --- | --- |
| NC(=O)CNC(=O)C1CCC2CN1C(=O)N2OS(=O)(=O)O (stereo not drawn) [Example 45, sodium salt of trans-N-(2-amino-2-oxoethyl)-7-oxo-6-(sulphooxy)-1,6-diazabicyclo[3.2.1]octane-2-carboxamide] | 0.6 µg/mL | 5 µg/mL | 2.5 µg/mL | 10 µg/mL | 2.5 µg/mL | >40 µg/mL | 1.2 µg/mL | 2.5 µg/mL | 1.2 µg/mL | >40 µg/mL | 1.2 µg/mL | 12 nM | 2.5 µg/mL | 60 nM | – |
| NC(=O)COC(=O)C1CCC2CN1C(=O)N2OS(=O)(=O)O (stereo not drawn) [Example 48, sodium salt of trans 2-amino-2-oxoethyl 7-oxo-6-(sulphooxy)-1,6-diazabicyclo[3.2.1]octane-2-carboxylate] | 0.6 µg/mL | 2.5 µg/mL | 1.2 µg/mL | 5 µg/mL | 1.2 µg/mL | >40 µg/mL | 0.6 µg/mL | 2.5 µg/mL | 1.2 µg/mL | >40 µg/mL | 2.5 µg/mL | 15 nM | 1.2 µg/mL | 120 nM | MIC of Cefotaxime in combination with the compound (Serratia 301HT6): <=0.04 μg/ml; MIC of Cefotaxime in combination with the compound (E. coli 250BE1 (SHV4); Trial 7, 250BE1 E. coli SHV4): 0.08 µg/mL; MIC of Cefotaxime in combination with the compound (E. coli 250HT26 (SHV1); Trial 6, 250HT26 E. coli SHV1): <=0.04 μg/ml; MIC of Cefotaxime in combination with the compound ([1]; Trial 8, 250HT23 E. coli Class D): <=0.04 μg/ml; MIC of Cefotaxime in combination with the compound (E. coli 250SJ1 (Tem7); Trial 5, 250SJ1 E. coli Tem7): <=0.04 μg/ml; MIC of Cefotaxime in combination with the compound ([2]; Trial 11, 391HT7 P. aeruginosa PSE): 40 µg/mL; MIC of Cefotaxime in combination with the compound (E. coli 250HT21 (Tem1); Trial 2, 250HT21 E. coli Tem1): <=0.04 μg/ml; MIC of Cefotaxime in combination with the compound (E. coli 250HT22 (Tem2); Trial 3, 250HT22 E. coli Tem2): <=0.04 μg/ml; MIC of Cefotaxime in combination with the compound ([3]; Trial 1, 011GO66 S. aureus PeniR): 2.5 µg/mL; MIC of Cefotaxime in combination with the compound ([4]; Trial 12, 391HT8 P. aeruginosa PSE): >40 µg/mL; MIC of Cefotaxime in combination with the compound ([5]; Trial 9, 293HT6 E. cloacae Class C): 0.15 µg/mL; MIC of Cefotaxime in combination with the compound (E. coli 250CF1 (Tem3); Trial 4, 250CF1 E. coli Tem3): <=0.04 μg/ml |
